# How the values were obtained:
# [1] = system: C57BL/6 male mice fed high fat diet; test: Blood AST value and blood ALT value after 8-week feeding (Test Example 1); format: in vivo; set-up: key to Blood ALT value, Significant difference: *: a significant difference was observed at 1% level of significance relative to group 3
# Excerpt: Eight-week-old C57BL/6 male mice (CLEA Japan, Inc.) were divided at random into groups (each group: four animals) and then used. As a normal diet, solid diet MF (lipid component 5.3%, manufactured by Oriental Yeast Co., Ltd.) was used. As a high-fat diet, solid diet High Fat Diet 32 (lipid component 32.0%, manufactured by CLEA Japan, Inc.) was used. As a sample water, 2.5% by weight of aqueous sucrose solution, 2.25% by weight of aqueous maltitol solution, and 4.5% by weight of aqueous maltitol solution obtained by respectively dissolving, as a test substance, sucrose (manufactured by Wako Pure Chemical Industries, Ltd.) and maltitol (Whole Crystalline Maltitol Ueno 60M, having maltitol purity of 90%, manufactured by Ueno Fine Chemicals Industry, Ltd.) in distilled water were used. Distilled water was used as a negative sample. The sample water was administered by making it available ad libitum and the amount of sample water intake was recorded. The dose of sucrose per day calculated from the concentration of the sample water and the water intake was 3 g per 1 kg of body weight. The dose of maltitol per day calculated in the same manner as above was 2.7 g per 1 kg of body weight in mice receiving 2.25% aqueous maltitol solution, and 4.5 g per 1 kg of body weight in mice receiving 4.5% aqueous maltitol solution. The diet and the sample water (test substance aqueous solution or distilled water) listed in Table 1 were administered to mice in each group, and the animals were fed for 8 weeks. After 8-week test feeding, pentobarbital of 0.5 mg/10 g of body weight was intraperitoneally administered to mice, and blood was collected from the tail vein under deep anesthesia. With respect to the serum from the collected blood sample of mice, blood AST value and blood ALT value which are each an indicator of liver function were measured using a Transaminase C-II Test Wako Kit (Wako Pure Chemical Industries, Ltd.). A significant difference test by the t-test method was performed on blood AST values, blood ALT values, and blood ketone bodies values were evaluated by performing significant difference tests on these values via t-test.
# [2] = system: C57BL/6 male mice fed high fat diet; test: Fat vacuoles in hepatocytes, HE-stained liver tissue (Test Example 2); format: in vivo; conditions: for Fat vacuole area, Significant difference: 1% level; for Fat vacuole area (Mean ± Standard error): 8 weeks
# Method: The following test was carried out in the same manner as in Test Example 1 for (1) test animal, (2) diet, and (3) preparation of sample. The diet and the sample water (test substance aqueous solution or distilled water) listed in Table 1 were administered to mice in each group and the animals were fed for 8 weeks. After 8-week test feeding, pentobarbital of 100 mg/kg of body weight was intraperitoneally administered to mice, and the mice were euthanized, and then liver was excised. The liver tissue excised from mice was stained with hematoxylin-eosin (HE) and a specimen observation under a microscope was carried out. Moreover, the results of microscopic observation were analyzed by the following method and a significant difference was evaluated by the t-test. […] This photographing was performed for four mice per group to obtain 16 microscopic images in total per group. At first, stained parts such as cytoplasm and nucleus in hepatocytes were selected by the image analysis. Then fat vacuole parts were selected by color inversion and the number of pixels for the selected fat vacuole parts was considered as a fat vacuole area. In the analysis, Dynamic Cell Count software accompanying fluorescence microscope BZ-9000 was used.
# [3] = Group 4: high fat diet + 2.25% aqueous maltitol solution ad libitum, 8 weeks (2.7 g/kg/day)
# [4] = Group 5: high fat diet + 4.5% aqueous maltitol solution ad libitum, 8 weeks (4.5 g/kg/day)
# [5] = Group 4: high fat diet + 2.25% aqueous maltitol solution
# [6] = Group 5: high fat diet + 4.5% aqueous maltitol solution
# [7] = Group 3: high fat diet + 2.5% aqueous sucrose solution ad libitum, 8 weeks (3 g/kg/day)
# [8] = Group 3: high fat diet + 2.5% aqueous sucrose solution
Structure (SMILES),"Blood AST value, change in words ([1]; Group 4 (2.25% aqueous maltitol solution) relative to group 3 (sucrose))","Blood ALT value (Mean ± Standard error) [1, 3] [IU/L]","Blood AST value (Mean ± Standard error) [1, 3] [IU/L]","Blood ALT value, change in words ([1]; Group 5 (4.5% aqueous maltitol solution) compared to group 3 (sucrose))","Blood AST value, change in words ([1]; Group 5 (4.5% aqueous maltitol solution) compared with group 1 (normal diet + distilled water))","Blood ALT value, Significant difference ([1]; Group 5 (4.5% aqueous maltitol solution) relative to group 3 (sucrose), t-test)","Blood ALT value (Mean ± Standard error) [1, 4] [IU/L]","Blood AST value (Mean ± Standard error) [1, 4] [IU/L]","Fat vacuole area, Significant difference ([2]; Group 4 (2.25% maltitol solution) relative to group 2 (high fat diet + distilled water))","Fat vacuoles in microscopic observation [2, 5]","Fat vacuole area (Mean ± Standard error) [2, 5] [pixel]","Fat vacuole area, Significant difference ([2]; Group 5 (4.5% maltitol solution) relative to group 2 (high fat diet + distilled water))","Fat vacuoles in microscopic observation [2, 6]","Fat vacuole area (Mean ± Standard error) [2, 6] [pixel]","Blood ALT value (Mean ± Standard error) [1, 7] [IU/L]","Blood AST value (Mean ± Standard error) [1, 7] [IU/L]","Fat vacuole area, Significant difference ([2]; Group 3 (2.5% sucrose solution) relative to group 2 (high fat diet + distilled water))","Fat vacuoles in microscopic observation [2, 8]","Fat vacuole area (Mean ± Standard error) [2, 8] [pixel]"
OC[C@@H](O)[C@@H](O[C@H]1O[C@H](CO)[C@@H](O)[C@H](O)[C@H]1O)[C@H](O)[C@@H](O)CO [maltitol],tendency to be decreased,41 ± 14,205 ± 77,significantly decreasing the blood ALT value,decreased to a level equivalent to that in group 1,*,11 ± 1,54 ± 3,significantly smaller and Yes,few fat vacuoles were observed,256145 ± 29037,significantly smaller and Yes,few fat vacuoles were observed,264982 ± 16387,,,,,
"OC[C@H]1O[C@@](CO)(O[C@H]2O[C@H](CO)[C@@H](O)[C@H](O)[C@H]2O)[C@@H](O)[C@@H]1O [sucrose, reference compound]",,,,,,,,,,,,,,,50 ± 12,244 ± 107,No,reduction of the fat vacuoles is limited,306930 ± 28549

# — US9155752B2, “Liver function-improving agent” (UENO FINE CHEMICALS INDUSTRY, LTD., priority 2012, dated 2015)
